In brackets after ≈: the same amount, converted by molar mass.
Tests used:
[1] = target: T1, Peroxisome proliferator-activated receptor delta (Homo sapiens, UniProt Q03181); assay: Partial agonist activity at PPARdelta (unknown origin)
T1 sequence (Q03181 whole entry): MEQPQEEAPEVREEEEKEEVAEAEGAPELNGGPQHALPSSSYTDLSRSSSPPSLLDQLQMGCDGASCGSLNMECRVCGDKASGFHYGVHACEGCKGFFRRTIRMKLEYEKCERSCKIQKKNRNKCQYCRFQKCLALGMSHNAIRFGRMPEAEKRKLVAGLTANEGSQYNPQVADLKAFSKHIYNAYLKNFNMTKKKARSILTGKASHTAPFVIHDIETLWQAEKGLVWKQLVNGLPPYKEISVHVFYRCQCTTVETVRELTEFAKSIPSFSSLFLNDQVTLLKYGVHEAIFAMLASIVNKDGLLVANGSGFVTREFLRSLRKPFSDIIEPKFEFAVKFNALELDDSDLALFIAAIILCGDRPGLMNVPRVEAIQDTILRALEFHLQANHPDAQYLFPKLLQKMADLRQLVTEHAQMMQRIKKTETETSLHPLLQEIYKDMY

[2] = buffer
physchem [3] = settings: buffer
[4] = Lipophilicity, logD of compound; type: physicochemical; settings: octanol/water
physchem [5] = settings: octanol/water
[6] = Permeability of compound in human Caco-2 cells; type: ADME, cell-based; settings: read-out: permeability
[7] = tested on: Human immunodeficiency virus 1; assay: Antiviral activity against HIV-1; type: functional, organism-based
[8] = tested on: Mycobacterium tuberculosis; assay: microbe, parasite or virus in culture
Plasmepsin II = Plasmepsin II (Plasmodium falciparum, UniProt P46925); assay: Inhibition of Plasmodium falciparum 3D7 plasmepsin II
Sequence of Plasmepsin II (P46925 whole entry): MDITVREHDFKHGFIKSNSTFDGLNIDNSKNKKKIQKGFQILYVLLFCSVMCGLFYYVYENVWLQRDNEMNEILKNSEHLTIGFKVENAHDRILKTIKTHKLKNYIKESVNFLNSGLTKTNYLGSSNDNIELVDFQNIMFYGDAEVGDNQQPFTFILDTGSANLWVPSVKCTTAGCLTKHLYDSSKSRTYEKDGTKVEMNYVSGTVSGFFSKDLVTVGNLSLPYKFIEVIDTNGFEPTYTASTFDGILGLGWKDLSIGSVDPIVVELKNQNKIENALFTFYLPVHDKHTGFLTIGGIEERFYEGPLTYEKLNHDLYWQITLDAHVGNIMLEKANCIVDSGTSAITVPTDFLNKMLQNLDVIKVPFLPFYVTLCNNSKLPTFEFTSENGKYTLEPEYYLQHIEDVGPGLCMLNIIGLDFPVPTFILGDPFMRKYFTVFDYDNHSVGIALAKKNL

MCF7 = assay: Antiproliferative activity against ER-positive human MCF7 cells after 48 hrs by MTT assay; type: functional, cell-based; settings: MCF7, 48 h

Row | SMILES | solubility thermodynamic (physchem [3]) | other results
1 | CCCCOc1ccc(-c2cccc(C(=O)O)c2)cc1CNC(=O)c1ccc(C(F)(F)F)cc1F | – | EC50 [1]: 170 nM; Therm_solubility [2]: 1 µg/mL
2 | CCn1nc(-c2cccc(Cl)c2)nc2c(=O)n(C)c(=O)nc1-2 | 28.5 µM | –
3 | CCCN(CCOC)c1cc(C)nc2c(-c3ccc(OC)cc3OC)c(C)nn12 | 10000 µg/mL | logD [4]: 2.78
4 | CCCCOc1ccc(-c2cncc(C(=O)O)c2)cc1CNC(=O)c1ccc(C(F)(F)F)cc1F | 7.6 µg/mL | EC50 [1]: 220 nM
5 | CCCCOc1ccc(-c2c(C)ncc(C(=O)O)c2C)cc1CNC(=O)c1ccc(C(F)(F)F)cc1F | – | EC50 [1]: 76 nM
6 | COc1cc2[nH]c(C)c(-c3ccccc3)c(=O)c2cc1Cl | 6 µM | logD [4]: 1.65
7 | CC(=O)NC[C@@H]1OC(=O)N2c3ccc(-c4ccc(C#N)nc4)cc3OC[C@@H]12 | 10 µg/mL | –
8 | C=CC(=O)Nc1cccc(N2C(=O)N(Cc3ccccc3)Cc3cnc(Nc4ccc(N5CCN(C)CC5)cc4OC)nc32)c1 | – | Therm_solubility [2]: 4000 µg/mL
9 | Cc1c(-c2ccc(Cc3ccc(OC(F)(F)F)cc3)cc2)[nH]c2cc(Cl)ccc2c1=O | – | logP (physchem [5]): 6.4
10 | Cc1c(-c2ccc(-c3ccc(OC(F)(F)F)cc3)nc2)[nH]c2ccccc2c1=O | – | logP (physchem [5]): 4.2
11 | CC(C)(C)OC(=O)N1CCN(c2ncc(OCc3ccc(S(C)(=O)=O)cc3)cn2)CC1 | 0.03 µM | –
12 | CC(C)(C)OC(=O)N1CCN(c2ncc(OCc3ccncc3C#N)cn2)CC1 | 24 µM | logD [4]: 3.3
13 | FC(F)(F)c1c(N2CCC(c3ccccc3)CC2)ccn2c(CC3CC3)nnc12 | – | logP (physchem [5]): 4.6; Papp [6]: 12 ×10⁻⁶ cm/s
14 | C/C(=C1/C(=O)Nc2ccc(NC(N)=O)cc21)c1cc(CNC(=O)C2CCNCC2)c[nH]1 | 17 µg/mL | –
15 | CN(C)CCNC(=O)c1cccc(-c2c[nH]c(/C=C3\C(=O)Nc4ccc(NC(N)=O)cc43)c2)c1 | 13 µg/mL | –
16 | COc1ccc(-c2oc3cc(O[C@@H]4O[C@H](CO[C@@H]5O[C@@H](C)[C@H](O)[C@@H](O)[C@H]5O)[C@@H](O)[C@H](O)[C@H]4O)cc(O)c3c(=O)c2Br)cc1O | 100000 µg/mL | logP (physchem [5]): 0.93
17 | O=C(C(=O)N1CCN(C(=O)c2ccccc2)CC1)c1c[nH]c2c(-n3ccnn3)ncc(F)c12 | 7 µg/mL | EC50 [7]: 0.006 nM
18 | COc1c(C(=O)Nc2ccc(NS(C)(=O)=O)cc2)cc(N2CCC(=O)NC2=O)cc1C(C)(C)C | 1500 µg/mL | –
19 | O=C(Nc1nnc(C2CC2)o1)NC12CC3CC(CC(C3)C1)C2 | 38.3 µg/mL | MIC [8]: 12.5 µg/mL (≈ 41.3 µM)
20 | Cn1cc(NC(=O)NC23CC4CC(CC(C4)C2)C3)cn1 | 41.1 µg/mL | MIC [8]: 50 µg/mL (≈ 182 µM)
21 | Cc1cc(NC(=O)NC23CC4CC(CC(C4)C2)C3)no1 | 25.9 µg/mL | MIC [8]: 27 µg/mL (≈ 98.1 µM)
22 | NC(=O)NCCSc1nc(N)nc(-c2c(Cl)cc3c4c(cccc24)COC3)n1 | 773 µM | –
23 | Cc1cc2ccccc2n1CCNC(=O)c1ccc(-c2nnn[nH]2)cc1 | – | Therm_solubility [2]: 0.257 µM

Row | SMILES | solubility thermodynamic (physchem [3]) | other results
24 | COc1cnc(-n2cnc(C)n2)c2[nH]cc(C(=O)C(=O)N3CCN(C(=O)c4ccccc4)CC3)c12 | 147 µg/mL | –
25 | CN(C)CCn1cc(C(=O)NC23CC4CC(CC(C4)C2)C3)c(=O)c2ccc(F)cc21 | 5.6 µg/mL | –
26 | Nc1ncc(-c2nc(N3CCOCC3)nc3c2CCN3C(=O)Nc2ccccc2)cn1 | 3 µg/mL | –
27 | COc1ccc(CNc2c3c(nc4ccc(C#N)cc24)CCN(C(C)=O)C3)cc1Cl | 500 µM | –
28 | CCCCCc1ccc(-c2cc(CCC(=O)O)c3c(=O)n(CC4CCCO4)c(N)nc3c2)cc1 (stereo unspecified) | 0.1 µg/mL | IC50 (Plasmepsin II): 50 nM
29 | Nc1nc2cc(-c3ccc(CCCc4ccccc4)cc3)cc(CCC(=O)O)c2c(=O)n1CC1CCCO1 (stereo unspecified) | – | Therm_solubility [2]: 0.17 µg/mL; IC50 (Plasmepsin II): 16700 nM
30 | COc1cc2c(cc1OC)CN(C(=O)/C=C/c1c(-c3ccccc3)n(C)c3ncccc13)CC2 | – | Therm_solubility [2]: 141 µg/mL
31 | NC(=O)Nc1ccc2c(c1)/C(=C/c1ccc[nH]1)C(=O)N2 | 2000 µg/mL | –
32 | COc1cc(NCc2cc3cc(Cl)ccc3[nH]c2=O)ccc1C#N | 0.43 µM | –
33 | COc1cc(NCc2cc3cc(C)c(C)cc3[nH]c2=O)ccc1-n1cnnn1 | 0.04 µM | –
34 | Cc1cc(/C=C/C#N)cc(C)c1Oc1nc(Nc2ccc(CN3CCN(S(C)(=O)=O)CC3)cc2)nc(N)c1Br | 30.9 µg/mL | EC50 [7]: 7.5 nM
35 | NC(=O)Nc1ccc2c(c1)/C(=C/c1cc(-c3ccccn3)c[nH]1)C(=O)N2 | 29 µg/mL | –
36 | CC1CC(=O)Oc2c1ccc1c2[C@@H](OC(=O)[C@@]23CC[C@@](C)(C(=O)O2)C3(C)C)[C@@H](OC(=O)[C@@]23CC[C@@](C)(C(=O)O2)C3(C)C)C(C)(C)O1 (stereo partly specified) | – | logP (physchem [5]): 4.82; EC50 [7]: 1.5 nM
37 | Nc1nc2cc(-c3ccc(CCCc4ccccc4)cc3)ccc2c(=O)n1CC1CCC(c2ccccc2)O1 (stereo unspecified) | < 0.01 µg/mL | IC50 (Plasmepsin II): 3200 nM
38 | C=CCNc1nc2c(s1)CC(C)(C)[C@H]1[C@H](O)[C@@]3(O)OC[C@@]21[C@@H]1CC[C@H]2C(=C)C(=O)[C@]13[C@@H]2O | 81200 µg/mL | IC50 (MCF7): 200 nM
39 | C=C1C(=O)[C@]23[C@H](O)[C@H]1CC[C@H]2[C@@]12CO[C@]3(O)[C@@H](O)[C@@H]1C(C)(C)Cc1sc(C)nc12 | 4400 µg/mL | IC50 (MCF7): 2600 nM
40 | C[C@H]1[C@H](COP(=O)([O-])[O-])OC(=O)N1c1ccc(-c2ccc([C@@H]3CN(C)C(=O)O3)nc2)cc1O.[Na+].[Na+] | 227000 µg/mL | –
41 | CC1c2ccc3c(c2OC(=O)C1CO)[C@@H](OC(=O)[C@@]12CC[C@@](C)(C(=O)O1)C2(C)C)[C@@H](OC(=O)[C@@]12CC[C@@](C)(C(=O)O1)C2(C)C)C(C)(C)O3 (stereo partly specified) | – | logP (physchem [5]): 3.62; EC50 [7]: 4 nM
42 | CN1C(=O)CCC(N2C(=O)c3ccccc3C2=O)C1=O (stereo unspecified) | 276 µg/mL | –
43 | Cc1sc(-c2ccccc2)nc1CCOc1ccc(CC(Nc2ccccc2C(=O)c2ccccc2)C(=O)O)cc1 (stereo unspecified) | 1 µg/mL | –
44 | COCCCc1nc(CCOc2ccc(CC(Nc3ccccc3C(=O)c3ccccc3)C(=O)O)cc2)c(C)s1 (stereo unspecified) | 210 µg/mL | –
45 | CCC1(O)C(=O)OCc2c1cc1n(c2=O)Cc2c-1nc1ccc(O)cc1c2CN(C)C (stereo unspecified) | 1000 µg/mL | –
46 | CCCCCc1ccc(-c2cc(-c3ccc(C(=O)O)cc3)c3c(=O)n(CC4CCC(c5ccccc5)O4)c(N)nc3c2)cc1 (stereo unspecified) | 0.01 µg/mL | IC50 (Plasmepsin II): 740 nM

Row | SMILES | solubility thermodynamic (physchem [3]) | other results
47 | O=c1nc2n(CCCC(F)(F)F)nc(-c3cccc(C(F)(F)F)c3)nc-2c(=O)n1CCC1CC1 | 200 µM | –
48 | C=C1C(=O)[C@]23[C@H](O)[C@H]1CC[C@H]2[C@@]12CO[C@]3(O)[C@@H](O)[C@@H]1C(C)(C)Cc1sc(NC)nc12 | 42400 µg/mL | IC50 (MCF7): 1300 nM
49 | Cc1nc(N2CCN(c3ncc(OCc4ccncc4C#N)cn3)CC2)no1 | – | logD [4]: 4
50 | CCCOc1ccc(CC(Cc2ccccc2)C(=O)O)cc1CNC(=O)c1ccc(C23CC4CC(CC(C4)C2)C3)cc1 (stereo unspecified) | 1 µg/mL | –
51 | Cc1sc(N2CCNCC2)nc1CCOc1ccc(CC(Nc2ccccc2C(=O)c2ccccc2)C(=O)O)cc1 (stereo unspecified) | 10000 µg/mL | –
52 | O=C1NC(c2ccccc2)(c2ccccc2)C(=O)N1COP(=O)([O-])O.[Na+] | 142000 µg/mL | –
53 | Cc1sc(N2CCOCC2)nc1CCOc1ccc(CC(Nc2ccccc2C(=O)c2ccccc2)C(=O)O)cc1 (stereo unspecified) | 180 µg/mL | –
54 | CCCCCn1cc(C(=O)NC23CC4CC(CC(C4)C2)C3)c(=O)c2ccc(F)cc21 | 0.014 µg/mL | –
55 | CCCCCCCc1c(C)nc2cc(OC)ccc2c1O | 2 µM | logD [4]: 3.69
56 | O=c1cc(-c2c(F)cccc2F)oc2ccc3ccccc3c12 | 153 µg/mL | –
57 | Oc1nc2cc(Cl)c(Cl)c(Cn3cncn3)c2nc1O | 10 µg/mL | –
58 | COc1ccc2c3c(c4cc(OC)c(OC)cc4c2c1)C[C@H]1CCCN1C3 [(-)-ANTOFINE] | – | Therm_solubility [2]: 1 µg/mL
59 | CC(=O)Nc1nc2c(Oc3cc(-c4ccc(C(F)(F)F)cc4)ncn3)cccc2s1 [AMG-517] | 1 µg/mL | –
60 | O=C(NCCN1CCCC1)c1cc(-c2ccc(CN3CCOCC3)cc2)nc2ccc(F)cc12 [CABAMIQUINE] | 216 µM | –
61 | c1cn2cc(-c3ccc4cn[nH]c4c3)nc(Nc3ccc(N4CCOCC4)cc3)c2n1 [ENTOSPLETINIB] | 28 µg/mL | –
62 | Cc1cc(C#N)cc(C)c1Oc1nc(Nc2ccc(C#N)cc2)nc(N)c1Br [ETRAVIRINE] | – | Therm_solubility [2]: 1 µg/mL
63 | COc1cnc(-n2cnc(C)n2)c2c1c(C(=O)C(=O)N1CCN(C(=O)c3ccccc3)CC1)cn2COP(=O)(O)O [FOSTEMSAVIR] | 11000 µg/mL | –
64 | C=C1C(=O)[C@]23[C@H](O)[C@H]1CC[C@H]2[C@@]12CO[C@]3(O)[C@@H](O)[C@@H]1C(C)(C)CC[C@@H]2O [ORIDONIN] | 1290 µg/mL | IC50 (MCF7): 6600 nM
65 | O=C1NC(=O)C(c2ccccc2)(c2ccccc2)N1 [PHENYTOIN] | – | Therm_solubility [2]: 20000 µg/mL
66 | Cn1nnc(-c2ccc(-c3ccc(N4C[C@H](COP(=O)(O)O)OC4=O)cc3F)cn2)n1 [TEDIZOLID PHOSPHATE] | 50000 µg/mL | –
67 | Cn1nnc(-c2ccc(-c3ccc(N4C[C@H](CO)OC4=O)cc3F)cn2)n1 [TEDIZOLID] | 136 µg/mL | –
68 | O=C1CCC(N2C(=O)c3ccccc3C2=O)C(=O)N1 (stereo unspecified) [THALIDOMIDE] | 52 µg/mL | –
